According to ChEMBL document CHEMBL3886950, “Furanone compounds as kinase inhibitors” (2016):

What follows are molecules tested against Serine/threonine-protein kinase B-raf (Homo sapiens, UniProt P15056, V600E) (assay: LanthaScreen Kinase Assay: The BRAFV600E enzymatic assay was performed using a LanthaScreen kinase assay kit purchased from Life Technologies (Grand Island, N.Y.). The assay was conducted according to the procedure provided in the assay kit. […] The final reaction volume for each reaction was 10 ul. The reaction was stopped by addition of 10 ul of TR-FRET dilution buffer kinase supplemented with kinase quench buffer (10 mM final) and Tb-anti-pMAP2K1 (2 nM final). The plate was further incubated at room temperature for another 60 minutes, and the fluorescent signals were read on Victor 5 (Perkin Elmer) with excitation at 340 nm and emission at 495 and 520 nM. The assay signal was determined as a ratio of FRET-specific signal measured with emission filter at 520 nM to that of the signal measured with Tb-specific emission filter at 495 nM. IC50 value was calculated using appropriate programs in GraphPad Prism by plotting the logarithm of the concentration versus percent inhibition.).
Chain of Serine/threonine-protein kinase B-raf (P15056 2-766 V600E limits assumed): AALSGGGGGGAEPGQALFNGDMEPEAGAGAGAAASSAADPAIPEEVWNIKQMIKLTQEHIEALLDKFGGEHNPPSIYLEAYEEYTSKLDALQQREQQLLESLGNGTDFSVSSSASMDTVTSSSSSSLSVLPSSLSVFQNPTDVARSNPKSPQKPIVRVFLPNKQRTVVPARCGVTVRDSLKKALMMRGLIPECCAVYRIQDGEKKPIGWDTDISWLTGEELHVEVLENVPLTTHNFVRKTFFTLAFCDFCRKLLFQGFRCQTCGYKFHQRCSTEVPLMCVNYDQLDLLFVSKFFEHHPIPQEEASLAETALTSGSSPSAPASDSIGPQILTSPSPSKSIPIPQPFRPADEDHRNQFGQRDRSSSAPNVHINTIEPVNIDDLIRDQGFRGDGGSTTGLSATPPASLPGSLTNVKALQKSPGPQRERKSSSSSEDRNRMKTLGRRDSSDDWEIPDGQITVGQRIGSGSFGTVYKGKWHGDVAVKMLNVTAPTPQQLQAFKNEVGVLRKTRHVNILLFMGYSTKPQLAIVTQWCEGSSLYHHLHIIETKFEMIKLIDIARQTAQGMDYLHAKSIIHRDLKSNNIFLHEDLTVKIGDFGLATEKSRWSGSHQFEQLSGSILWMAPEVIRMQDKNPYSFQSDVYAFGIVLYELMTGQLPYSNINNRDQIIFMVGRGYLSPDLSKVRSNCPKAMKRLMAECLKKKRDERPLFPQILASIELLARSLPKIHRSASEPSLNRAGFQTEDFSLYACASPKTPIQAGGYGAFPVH

Question: `Nc1nccc(C2=C(c3cccc(NS(=O)(=O)c4c(F)cccc4F)c3F)C(=O)C3(CCCC3)O2)n1` was tested. Which IC50 did it give?
Answer: The IC50 was 29 nM.

Question: For `CC1(C)OC(c2ccnc(N)n2)=C(c2cc(Cl)cc(NS(=O)(=O)c3ccc(F)cc3F)c2F)C1=O`, which IC50 is on record?
Answer: The IC50 was 10 nM.

Question: `CC1(C)OC(c2ccnc(N)n2)=C(c2cc(Cl)cc(NS(=O)(=O)c3c(F)cccc3F)c2F)C1=O` was tested. Which IC50 did it give?
Answer: The IC50 was 5.5 nM.
